# Laboratory results as given in PubChem BioAssay AID2060505 (Molecular Pharmacology Branch, DTP, NCI, 2025).
# System: 633275-114-R-J1-PDC complex spheroids, viability
# Test: Anticancer human tumor 633275-114-R-J1-PDC patient-derived endometrial adenocarcinoma cell line growth inhibition [GQUAD]
# Details: for IC50: curve of first compound; for viability, T/C: stronger effect = lower value
# Method in brief: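 Multi-cell-type spheroids of tumor cells with HUVEC and mesenchymal stem cells, treated with drug combinations. Concentrations descend in half-log steps from near clinical Cmax, or from 10 microM where Cmax is unknown; viability read-out.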
# [1] = second compound 0.0316 µM, first compound 0.0316 µM
# [2] = second compound 0.0316 µM, first compound 0.1 µM
# [3] = second compound 0.0316 µM, first compound 0.316 µM
# [4] = second compound 0.0316 µM, first compound 1 µM
# [5] = second compound 0.0316 µM, first compound 3.16 µM
# [6] = second compound 0.0316 µM, first compound 10 µM
# [7] = second compound 0.1 µM, first compound 0.0316 µM
# [8] = second compound 0.1 µM, first compound 0.1 µM
# [9] = second compound 0.1 µM, first compound 0.316 µM
# [10] = second compound 0.1 µM, first compound 1 µM
# [11] = second compound 0.1 µM, first compound 3.16 µM
# [12] = second compound 0.1 µM, first compound 10 µM
# [13] = second compound 0.316 µM, first compound 0.0316 µM
# [14] = second compound 0.316 µM, first compound 0.1 µM
# [15] = second compound 0.316 µM, first compound 0.316 µM
# [16] = second compound 0.316 µM, first compound 1 µM
# [17] = second compound 0.316 µM, first compound 3.16 µM
# [18] = second compound 0.316 µM, first compound 10 µM
# [19] = second compound 1 µM, first compound 0.0316 µM
# [20] = second compound 1 µM, first compound 0.1 µM
# [21] = second compound 1 µM, first compound 0.316 µM
# [22] = second compound 1 µM, first compound 1 µM
# [23] = second compound 1 µM, first compound 3.16 µM
# [24] = second compound 1 µM, first compound 10 µM
# [25] = second compound 3.16 µM, first compound 0.0316 µM
# [26] = second compound 3.16 µM, first compound 0.1 µM
# [27] = second compound 3.16 µM, first compound 0.316 µM
# [28] = second compound 3.16 µM, first compound 1 µM
# [29] = second compound 3.16 µM, first compound 3.16 µM
# [30] = second compound 3.16 µM, first compound 10 µM
# [31] = second compound 10 µM, first compound 0.0316 µM
# [32] = second compound 10 µM, first compound 0.1 µM
# [33] = second compound 10 µM, first compound 0.316 µM
# [34] = second compound 10 µM, first compound 1 µM
# [35] = second compound 10 µM, first compound 3.16 µM
# [36] = second compound 10 µM, first compound 10 µM
# 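Note: spheroids exposed to the agents for seven days.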
# 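Throughout, for viability, T/C: percent of DMSO vehicle control viability which is 100%.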
smiles,measurement,setting,value
O=C(c1cc(Cc2n[nH]c(=O)c3ccccc23)ccc1F)N1CCN(C(=O)C2CC2)CC1 + Cc1cnc(CNC(=O)c2c(=O)c3ccc(N4CCCN(C)CC4)nc3n3c2sc2ccccc23)cn1,IC50,second compound 0.0316 µM,9930 nM
same,IC50,second compound 0.1 µM,43.6 nM
same,IC50,second compound 0.316 µM,< 31.6 nM
same,IC50,second compound 1 µM,< 31.6 nM
same,IC50,second compound 3.16 µM,< 31.6 nM
same,IC50,second compound 10 µM,< 31.6 nM
same,"viability, T/C",[1],63%
same,"viability, T/C",[2],60.9%
same,"viability, T/C",[3],71.4%
same,"viability, T/C",[4],58.2%
same,"viability, T/C",[5],57.2%
same,"viability, T/C",[6],50.3%
same,"viability, T/C",[7],49.5%
same,"viability, T/C",[8],47.9%
same,"viability, T/C",[9],49.1%
same,"viability, T/C",[10],48.9%
same,"viability, T/C",[11],41.9%
same,"viability, T/C",[12],42.8%
same,"viability, T/C",[13],46.6%
same,"viability, T/C",[14],42.7%
same,"viability, T/C",[15],43.7%
same,"viability, T/C",[16],38.9%
same,"viability, T/C",[17],44%
same,"viability, T/C",[18],33.7%
same,"viability, T/C",[19],37.7%
same,"viability, T/C",[20],35.3%
same,"viability, T/C",[21],45.3%
same,"viability, T/C",[22],42.6%
same,"viability, T/C",[23],37%
same,"viability, T/C",[24],35.1%
same,"viability, T/C",[25],37.8%
same,"viability, T/C",[26],38.9%
same,"viability, T/C",[27],42.2%
same,"viability, T/C",[28],30.9%
same,"viability, T/C",[29],34.3%
same,"viability, T/C",[30],31%
same,"viability, T/C",[31],33.4%
same,"viability, T/C",[32],31.2%
same,"viability, T/C",[33],28.5%
same,"viability, T/C",[34],30.9%
same,"viability, T/C",[35],33.7%
same,"viability, T/C",[36],29.8%
Nc1ccn(C2OC(CO)C(O)C2(F)F)c(=O)n1 (centres undefined) + CN(C)c1ccc(Nc2c3ccc(NC(=O)CCN4CCCC4)cc3nc3cc(NC(=O)CCN4CCCC4)ccc23)cc1,IC50,second compound 0.0316 µM,< 31.6 nM
same,IC50,second compound 0.1 µM,< 31.6 nM
same,IC50,second compound 0.316 µM,< 31.6 nM
same,IC50,second compound 1 µM,< 31.6 nM
same,IC50,second compound 3.16 µM,< 31.6 nM
same,IC50,second compound 10 µM,< 31.6 nM
same,"viability, T/C",[1],27.4%
same,"viability, T/C",[2],20.1%
same,"viability, T/C",[3],23.8%
same,"viability, T/C",[4],23.6%
same,"viability, T/C",[5],20.7%
same,"viability, T/C",[6],20.5%
same,"viability, T/C",[7],27.1%
same,"viability, T/C",[8],20.7%
same,"viability, T/C",[9],24%
same,"viability, T/C",[10],22.4%
same,"viability, T/C",[11],21.5%
same,"viability, T/C",[12],19.3%
same,"viability, T/C",[13],29.6%
same,"viability, T/C",[14],21%
same,"viability, T/C",[15],25.6%
same,"viability, T/C",[16],22.9%
same,"viability, T/C",[17],19.7%
same,"viability, T/C",[18],17.7%
same,"viability, T/C",[19],27.7%
same,"viability, T/C",[20],20.1%
same,"viability, T/C",[21],22%
same,"viability, T/C",[22],21.1%
same,"viability, T/C",[23],22.4%
same,"viability, T/C",[24],19.6%
same,"viability, T/C",[25],24.6%
same,"viability, T/C",[26],20.6%
same,"viability, T/C",[27],19.3%
same,"viability, T/C",[28],18.6%
same,"viability, T/C",[29],20.6%
same,"viability, T/C",[30],18.6%
same,"viability, T/C",[31],12.9%
same,"viability, T/C",[32],11.6%
same,"viability, T/C",[33],11.7%
same,"viability, T/C",[34],11.7%
same,"viability, T/C",[35],11%
same,"viability, T/C",[36],9%
